Marks after values point to notes of the source that are not given here.
Tested on: patients with nocturia
Assay: Non-randomized trial treatment with loxoprofen in patients with nocturia; voids/night outcome assessed as excellent, improved, unchanged or worsened
Type: in vivo, human
Protocol: One hundred forty one patients (135 men) aged 49 to 89 (mean 70.5) years with LUTS and =2 voids per night were enrolled in the study. Their main diseases were BPH (n=93), prostate cancer (n=24) and neurogenic bladder (NB) (n=13); 11 had other diseases. […] Patients who had asthma, gastrointestinal disorders, renal dysfunction and allergies to loxoprofen were excluded. Patients took a single 60 mg loxoprofen tablet prior to sleeping at night for 4 to 14 days initially concurrently with their treatments for their main diseases. Numbers of voids/night as reported by each patient were evaluated and treatment outcome was assessed as either excellent (nocturia disappeared or decreased by =2 voids/night), improved (nocturia decreased by 1 void/night), unchanged or worsened (nocturia increased).

[1] = 60 mg prior to sleeping, 108 patients who did not respond to anticholinergic drugs
[2] = 60 mg prior to sleeping, Antidiuretic hormone non-responder, 3 patients
[3] = 60 mg prior to sleeping, Antidiuretic hormone responder, 6 patients
[4] = 60 mg prior to sleeping, BPH, 93 patients
[5] = 60 mg prior to sleeping, BPH, 93 patients, listed as Loxoprofen
[6] = 60 mg prior to sleeping, Female, 6
[7] = 60 mg prior to sleeping, Insomnia, 20 patients
[8] = 60 mg prior to sleeping, Male, 135
[9] = 60 mg prior to sleeping, Neurogenic bladder, 13 patients
[10] = 60 mg prior to sleeping, Neurogenic bladder, 13 patients, listed as Loxoprofen
[11] = 60 mg prior to sleeping, Nocturnal polyuria, 7 patients
[12] = 60 mg prior to sleeping, Post-TURP, 18 patients
[13] = 60 mg prior to sleeping, Post-thermotherapy, 19 patients
[14] = 60 mg prior to sleeping, Prostate cancer, 24 patients
[15] = 60 mg prior to sleeping, Prostate cancer, 24 patients, listed as Loxoprofen
[16] = 60 mg prior to sleeping, Prostate cancer, hormone therapy, 15 patients
[17] = 60 mg prior to sleeping, Prostate cancer, post-prostatectomy (radical), 5 patients
[18] = 60 mg prior to sleeping, Prostate cancer, post-radiation, 4 patients
[19] = 60 mg prior to sleeping, Prostatodynia, 5 patients
[20] = 60 mg prior to sleeping, Urinary frequency with UUI, 10 patients
[21] = 60 mg prior to sleeping, Urinary frequency without UUI, 9 patients
[22] = 60 mg prior to sleeping, aged 49 to 59 years
[23] = 60 mg prior to sleeping, aged 60 to 69 years
[24] = 60 mg prior to sleeping, aged 70 to 79 years
[25] = 60 mg prior to sleeping, aged 80 to 86 years
[26] = 60 mg prior to sleeping, frequency at baseline 2 and 2-3, 56 patients
[27] = 60 mg prior to sleeping, frequency at baseline 3-4, 59 patients
[28] = 60 mg prior to sleeping, frequency at baseline 4-5, 15 patients
[29] = 60 mg prior to sleeping, frequency at baseline >5, 11 patients
[30] = 60 mg prior to sleeping, non-responders to Anticholinergics, 32 patients
[31] = 60 mg prior to sleeping, non-responders to Hypnotics, 42 patients
[32] = 60 mg prior to sleeping, non-responders to TCA (tricyclic antidepressants), 76 patients

Effect on voiding power (patients with BOO): does not decrease voiding power
Structure (SMILES): CC(C(=O)O)c1ccc(CC2CCCC2=O)cc1 (centres unmarked) [loxoprofen, loxoprofen sodium]
Onset of changes in patients' symptoms (60 mg prior to sleeping): starting from the first night of therapy
Excellent responder rate (60 mg prior to sleeping, 85 patients with more frequent nocturia than 2 to 3 episodes at baseline): 46%
Excellent rate [1]: 44%
Improved rate [1]: 38%
Nocturia improved or disappeared, % of patients overall (60 mg prior to sleeping, 141 patients): 72%
Improved, % of patients [2]: (33%)
Improved, no. of patients [2]: 1
Unchanged, % of patients [2]: 67%
Unchanged, no. of patients [2]: 2
Excellent, % of patients [3]: (17%)
Excellent, no. of patients [3]: 1
Improved, % of patients [3]: (67%)
Improved, no. of patients [3]: 4
Unchanged, % of patients [3]: 17%
Unchanged, no. of patients [3]: 1
Excellent, % of patients [4]: (39%)
Excellent, no. of patients [4]: 36^
Improved, % of patients [4]: (34%)
Improved, no. of patients [4]: 32^
Unchanged, % of patients [4]: (23%)
Unchanged, no. of patients [4]: 21^
Worsened, % of patients [4]: (4%)
Worsened, no. of patients [4]: 4
Excellent, % of patients [5]: 39%
Improved, % of patients [5]: 34%
Excellent, % of patients [6]: (33%)
Excellent, no. of patients [6]: 2
Improved, % of patients [6]: (33%)
Improved, no. of patients [6]: 2
Unchanged, % of patients [6]: (33%)
Unchanged, no. of patients [6]: 2
Excellent, % of patients [7]: (35%)
Excellent, no. of patients [7]: 7^
Improved, % of patients [7]: (40%)
Improved, no. of patients [7]: 8^
Unchanged, % of patients [7]: (20%)
Unchanged, no. of patients [7]: 4^
Worsened, % of patients [7]: (5%)
Worsened, no. of patients [7]: 1
Excellent, % of patients (60 mg prior to sleeping, Insomnia, 20 patients, listed as Loxoprofen): 35%
Excellent, no. of patients (60 mg prior to sleeping, Interstitial cystitis, 2 patients): 2^¶
Excellent, % of patients [8]: (36%)
Excellent, no. of patients [8]: 49
Improved, % of patients [8]: (36%)
Improved, no. of patients [8]: 48
Unchanged, % of patients [8]: (24%)
Unchanged, no. of patients [8]: 32
Worsened, % of patients [8]: (4%)
Worsened, no. of patients [8]: 6
Excellent, % of patients [9]: (69%)
Excellent, no. of patients [9]: 9^‡
Improved, % of patients [9]: (8%)
Improved, no. of patients [9]: 1^¶
Unchanged, % of patients [9]: (15%)
Unchanged, no. of patients [9]: 2^¶
Worsened, % of patients [9]: (8%)
Worsened, no. of patients [9]: 1
Excellent, % of patients [10]: 69%
Improved, % of patients [10]: 8%
Excellent, % of patients [11]: (14%)
Excellent, no. of patients [11]: 1^
Improved, % of patients [11]: (71%)
Improved, no. of patients [11]: 5^
Unchanged, % of patients [11]: (14%)
Unchanged, no. of patients [11]: 1^
Excellent, % of patients (60 mg prior to sleeping, Nocturnal polyuria, 7 patients, listed as Loxoprofen): 14%
Excellent, no. of patients [12]: 8
Improved, % of patients [12]: (27%)
Improved, no. of patients [12]: 5
Unchanged, % of patients [12]: 22%
Unchanged, no. of patients [12]: 4
Worsened, % of patients [12]: 6%
Worsened, no. of patients [12]: 1
Excellent, no. of patients [13]: 8
Improved, % of patients [13]: (26%)
Improved, no. of patients [13]: 5
Unchanged, % of patients [13]: 32%
Unchanged, no. of patients [13]: 6
Excellent, % of patients [14]: (29%)
Excellent, no. of patients [14]: 7^
Improved, % of patients [14]: (33%)
Improved, no. of patients [14]: 8^
Unchanged, % of patients [14]: (33%)
Unchanged, no. of patients [14]: 8^
Worsened, % of patients [14]: (4%)
Worsened, no. of patients [14]: 1
Excellent, % of patients [15]: 29%
Improved, % of patients [15]: 33%
Excellent, no. of patients [16]: 5^
Improved, no. of patients [16]: 3^
Unchanged, no. of patients [16]: 6^
Worsened, no. of patients [16]: 1
Excellent, no. of patients [17]: 1^
Improved, no. of patients [17]: 2^
Unchanged, no. of patients [17]: 2^
Excellent, no. of patients [18]: 1^
Improved, no. of patients [18]: 3^
Excellent, % of patients [19]: (20%)
Excellent, no. of patients [19]: 1^
Improved, % of patients [19]: (40%)
Improved, no. of patients [19]: 2^
Unchanged, % of patients [19]: (20%)
Unchanged, no. of patients [19]: 1^
Worsened, % of patients [19]: (20%)
Worsened, no. of patients [19]: 1
Worsened, no. of patients (60 mg prior to sleeping, Total 141): 6
Excellent, % of patients [20]: (20%)
Excellent, no. of patients [20]: 2^
Improved, % of patients [20]: (50%)
Improved, no. of patients [20]: 5^†
Unchanged, % of patients [20]: (30%)
Unchanged, no. of patients [20]: 3^¶
Excellent, % of patients (60 mg prior to sleeping, Urinary frequency with UUI, 10 patients, listed as Loxoprofen): 20%
Excellent, % of patients [21]: (44%)
Excellent, no. of patients [21]: 4^¶
Improved, % of patients [21]: (22%)
Improved, no. of patients [21]: 2^
Unchanged, % of patients [21]: (22%)
Unchanged, no. of patients [21]: 2^¶
Worsened, % of patients [21]: (11%)
Worsened, no. of patients [21]: 1
Excellent, % of patients (60 mg prior to sleeping, Urinary frequency without UUI, 9 patients, listed as Loxoprofen): 44%
Excellent responses, % of patients [22]: 50%
Excellent responses, patients/group size [22]: 4/8
Excellent responses, % of patients [23]: 40%
Excellent responses, patients/group size [23]: 17/43
Excellent responses, % of patients [24]: 35%
Excellent responses, patients/group size [24]: 23/65
Excellent responses, % of patients [25]: 28%
Excellent responses, patients/group size [25]: 7/25
Excellent, % of patients [26]: (21%)
Excellent, no. of patients [26]: 12*^
Improved, % of patients [26]: (41%)
Improved, no. of patients [26]: 23^†
Unchanged, % of patients [26]: (34%)
Unchanged, no. of patients [26]: 19^†
Worsened, % of patients [26]: (4%)
Worsened, no. of patients [26]: 2
Excellent, % of patients (60 mg prior to sleeping, frequency at baseline 2 and 2-3, 56 patients, listed as Loxoprofen): 21%
Excellent, % of patients [27]: (47%)
Excellent, no. of patients [27]: 28^†
Improved, % of patients [27]: (31%)
Improved, no. of patients [27]: 18^†
Unchanged, % of patients [27]: (17%)
Unchanged, no. of patients [27]: 10^†
Worsened, % of patients [27]: (5%)
Worsened, no. of patients [27]: 3
Excellent, % of patients [28]: (40%)
Excellent, no. of patients [28]: 6^
Improved, % of patients [28]: (40%)
Improved, no. of patients [28]: 6^
Unchanged, % of patients [28]: (20%)
Unchanged, no. of patients [28]: 3^
Excellent, % of patients [29]: (45%)
Excellent, no. of patients [29]: 5^†
Improved, % of patients [29]: (27%)
Improved, no. of patients [29]: 3^
Unchanged, % of patients [29]: (18%)
Unchanged, no. of patients [29]: 2^
Worsened, % of patients [29]: (5%)
Worsened, no. of patients [29]: 1
Excellent, % of patients [30]: (44%)
Excellent, no. of patients [30]: 14
Improved, % of patients [30]: (38%)
Improved, no. of patients [30]: 12
Unchanged, % of patients [30]: 19%
Unchanged, no. of patients [30]: 6
Worsened, % of patients [30]: 3%
Worsened, no. of patients [30]: 1
Excellent, no. of patients [31]: 13
Improved, no. of patients [31]: 16
Unchanged, % of patients [31]: 26%
Unchanged, no. of patients [31]: 11
Worsened, % of patients [31]: 5%
Worsened, no. of patients [31]: 2
Excellent, % of patients [32]: (39%)
Excellent, no. of patients [32]: 30
Improved, % of patients [32]: (37%)
Improved, no. of patients [32]: 28
Unchanged, % of patients [32]: 22%
Unchanged, no. of patients [32]: 17
Worsened, % of patients [32]: 5%
Worsened, no. of patients [32]: 4
Excellent effects, patients (60 mg prior to sleeping, patients who previously responded or were refractory to antidiuretic hormone): one of nine patients
Side effects such as dry mouth, constipation and habituation (human, in vivo): does not produce side effects
Quality of life (patients whose nocturia improved): noticeable improvements in their quality of life
Time to first voiding (some patients of the unchanged group): delayed by several hours

Source: US8071763B2, “Methods for treatment of nocturia” (Daiichi Sankyo Company, Limited, priority 2002, dated 2011)
